This note sets out measurements from patent US20070134744A1, “Epothilone resistant cell lines” (priority 2000, published 2007).

The subject of one experiment is KB-8511 cells. The format is cell-based, human. Particulars: for RF (resistance factor: IC50 resistant cell line / IC50 parental KB-31): KB-8511 (Colch selected), 72 hrs, average of three experiments; for resistance profile in words: KB-8511 vs parental KB-31. The protocol: (§1) Data in Table 4 are gathered according to the following methods: Cells (1×10^3) are seeded in 96-well plates and allowed to adhere for 24 hrs. Compounds are then added as two-fold serial dilutions and incubation continued for an additional 72 hrs. Cell numbers at the beginning and at the end of the experiment are estimated by methylene blue staining of cellular protein mass according to conventional methods. The net mass increase of vehicle-treated cells is set as 100% growth. The IC50 is determined as the drug concentration that leads to half-maximal growth inhibition compared to the control. The resistance factor (RF) for a particular drug is calculated by dividing the IC50 determined on the resistant cell line by that determined on the parental KB-31 cells. Data are presented as average±standard deviation (SD) of three separate experiments, except na=not applicable (n<3). Colchicine-selected KB-8511 cells overexpressing P-glycoprotein served as a reference for the classical multi-drug-resistant phenotype.

A further experiment has as its system 297/C5/0 cells. The format is cell-based, human. The following applies: for RF (resistance factor: IC50 resistant cell line / IC50 parental KB-31): 297/C5/0 (EpoA selected), 72 hrs, average of three experiments; for resistance profile in words: 297/C5/0 vs parental KB-31. The protocol:
(§2) Anti-proliferative assays are performed basically as described (Meyer et al., Int. J. Cancer 43:851 (1989)). Briefly, cells are seeded at 1.5×10^3 cells/well into 96-well microtiter plates and allowed to adhere by incubation overnight. Compounds are added in serial dilutions on day 1. The plates are then incubated for an additional 3 days, after which the cells are fixed with 3.3% v/v glutaraldehyde, washed with water and stained with 0.05% w/v methylene blue according to conventional methods. After washing, the dye is eluted with 3% HCl and the optical density measured at 665 nm with a SpectraMax Plus (Molecular Devices, Sunnyvale, Calif.) according to manufacturers instructions. IC50 values are determined by mathematical curve-fitting using the SoftPro2.6.1 program (Molecular Devices, Sunnyvale, Calif.) using the formula (OD treated−OD start)/(OD control−OD start)×100. […] IC50 determinations with the cell line 298/D4/40 are performed in the presence of 40 nM epothilone A.
as §1

The test system of a further experiment is 298/D4/40 cells. The format is cell-based, human. Particulars: for RF (resistance factor: IC50 resistant cell line / IC50 parental KB-31): 298/D4/40 (EpoA selected), 72 hrs, in the presence of 40 nM epothilone A; for resistance profile in words: 298/D4/40 vs parental KB-31. Here is the method:
as §2, §1

Another experiment relates to 315/sc5.9 cells. The format is cell-based, human. The following applies: for RF (resistance factor: IC50 resistant cell line / IC50 parental KB-31): 315/sc5.9 (EpoB selected), 72 hrs, average of three experiments; for resistance profile in words: 315/sc5.9 vs parental KB-31. The protocol: as §2, §1
The subject of another experiment is MDA-MB-435 cells. Nature of the experiment: MTS growth inhibition assay. The format is cell-based. Particulars: Homo sapiens, P-gp substrates, Table 2. The protocol:
(§3) Growth inhibition may be analyzed using conventional methods, for example a MTS assay (PROMEGA, Wis.) may be used. In this assay approximately 4000 cells per well are seeded in 96 well plates in MEM supplemented with 10% fetal calf serum and incubated at 37° C. in 5.0% CO2. After 24 hours, dilutions of drug (concentration range used is between 1 nM and 1000 nM) are added and cells are allowed to incubate with drug for an additional 72 hours. The MTS reagent mixed with PMS (MTS:PMS 20:1 according to manufacturer's instructions) is then added and absorbance quantitated using a Thermomax microplate reader system according to conventional methods (Molecular Devices, Sunnyvale, Calif.). […] Six assays per drug per plate are performed.
Thus, at least two potential mechanisms of epothilone A resistance may exist—a lower resistance mechanism that is cross-resistant to TAXOL® and a higher, epothilone A specific resistance mechanism.

A further experiment concerns EA40 cells. Put plainly: MTS growth inhibition assay. The format is cell-based. Particulars: for IC50: EA40 cells, P-gp substrates, Table 2; for resistance profile in words: EA40 vs MDA-MB-435 / EA150. The protocol:
as §3, with “performed. […]” for “performed.”
(§4) As such, epothilone resistant cells would have some degree of cross-resistance to other P-gp substrates that could be reversed by P-gp inhibitors. To investigate this possibility, the cytotoxicity of the P-gp substrates, vincristine, doxorubicine and vinblastine is determined against epothilone A resistant cells using the MTS assay. […] When EA20 and resistant MDA/T0.3 cells are incubated with TAXOL® or epothilone A in the presence of [3′-Desoxy-3′-oxo-MeBmt]^1-[Val]^2-Ciclosporin (PSC-833; a P-gp inhibitor which is disclosed in U.S. Pat. No. 5,525,590), the resistance of MDA/T0.3 cells to TAXOL® is reversed but no effect on the resistance of EA20 to epothilone A is observed.

Another experiment relates to MDA/T0.3 cells. Put plainly: MTS growth inhibition assay. The format is cell-based. The protocol: Growth inhibition may be analyzed using conventional methods, for example a MTS assay (PROMEGA, Wis.) may be used. In this assay approximately 4000 cells per well are seeded in 96 well plates in MEM supplemented with 10% fetal calf serum and incubated at 37° C. in 5.0% CO2. […] The MTS reagent mixed with PMS (MTS:PMS 20:1 according to manufacturer's instructions) is then added and absorbance quantitated using a Thermomax microplate reader system according to conventional methods (Molecular Devices, Sunnyvale, Calif.). […] Six assays per drug per plate are performed.
as §4
MDA/T0.3 is a clonal subline of MDA-MB-435 cells selected by increasing exposure of MDA-MB-435 cells to TAXOL®. MDA/T0.3 cells express high levels of P-glycoprotein and are resistant to a variety of chemically and functionally unrelated compounds. MDA/T0.3 cells could be sensitized to a variety of cytotoxic agents by treatment with the P-glycoprotein reversing agent PSC-833.

The mark [1] stands for this setting: MDA/T0.3 cells, P-gp substrates, Table 2, read-out: IC50.

Counter-ions that a name gives are not always drawn. Like-named read-outs stand apart in the source and are kept apart here.

On to `O=c1[nH]cc(F)c(=O)[nH]1` [5-FU, 5-Fluorouracil], for which the “RF (resistance factor: IC50 resistant cell line / IC50 parental KB-31)” value in the experiment with KB-8511 cells turned out to be 1.1; in the experiment on 297/C5/0 cells it was 1.2; with 298/D4/40 cells it was 0.9; in the experiment on 315/sc5.9 cells, 0.4. The “resistance profile in words” value is on record as “Neither cell line is cross-resistant” in the experiment on 297/C5/0 cells, “Neither cell line is cross-resistant” in the experiment with 298/D4/40 cells and “slightly hypersensitive” with 315/sc5.9 cells.
On to `COc1cccc2c1C(=O)c1c(O)c3c(c(O)c1C2=O)C[C@@](O)(C(C)=O)C[C@@H]3O[C@H]1C[C@H](N)[C@H](O)[C@H](C)O1` [Daunorubicin], for which the IC50 in the experiment with MDA-MB-435 cells was 382 ± 101 nM; with EA40 cells, 224 ± 72 nM; in the experiment on MDA/T0.3 cells, greater than 5000 nM.
With `CN[C@H]1CCc2cc(OC)c(OC)c(OC)c2-c2ccc(OC)c(=O)cc21` [Demecolcine, demecolcine], the “resistance profile in words” value is recorded as “resistant” in the experiment with KB-8511 cells, “hypersensitive” in the experiment with 297/C5/0 cells, “hypersensitive” with 298/D4/40 cells and “slightly hypersensitive” with 315/sc5.9 cells.
As for `C=C/C=C\[C@H](C)[C@H](OC(N)=O)[C@@H](C)[C@H](O)[C@@H](C)C/C(C)=C\[C@H](C)[C@@H](O)[C@@H](C)/C=C\[C@@H](O)C[C@@H]1OC(=O)[C@H](C)[C@@H](O)[C@H]1C` [Discodermolide], the “RF (resistance factor: IC50 resistant cell line / IC50 parental KB-31)” value in the experiment on KB-8511 cells stood at 2.8; in the experiment on 297/C5/0 cells, 1.3; in the experiment on 298/D4/40 cells it was 0.5; with 315/sc5.9 cells it was 1.2. Further, the “resistance profile in words” value in the experiment with 297/C5/0 cells and in the experiment with 298/D4/40 cells was “not cross-resistant” in each case.
For `COc1cccc2c1C(=O)c1c(O)c3c(c(O)c1C2=O)C[C@@](O)(C(=O)CO)C[C@@H]3O[C@H]1C[C@H](N)[C@H](O)[C@H](C)O1` [Doxorubicin, doxorubicin], the values for the half-maximal inhibitory concentration (IC50) in the experiment with MDA-MB-435 cells, in the experiment with EA40 cells and with MDA/T0.3 cells (setting [1]) were greater than 500 nM, 365 ± 200 nM and greater than 5000 nM, respectively. In addition, the “resistance profile in words” value in the experiment on EA40 cells is reported as “equally sensitive”; with KB-8511 cells, “resistant”; with 297/C5/0 cells it was “Neither cell line is cross-resistant”; with 298/D4/40 cells it was “Neither cell line is cross-resistant”; with 315/sc5.9 cells, “marginal cross-resistance”. The “RF (resistance factor: IC50 resistant cell line / IC50 parental KB-31)” value was 48.8 in the experiment with KB-8511 cells, 1.6 in the experiment with 297/C5/0 cells, 1.2 in the experiment with 298/D4/40 cells and 1.8 with 315/sc5.9 cells.
As to `[NH2][Pt]1([NH2])[O]C(=O)C2(CCC2)C(=O)[O]1` [Paraplatine, Paraplatin], the “RF (resistance factor: IC50 resistant cell line / IC50 parental KB-31)” value was 0.8 in the experiment on KB-8511 cells, 1.2 in the experiment on 297/C5/0 cells, 3.8 in the experiment with 298/D4/40 cells and 0.7 with 315/sc5.9 cells. Further, the “resistance profile in words” value was “Neither cell line is cross-resistant” in the experiment with 297/C5/0 cells and “very minor increase in the resistance” in the experiment with 298/D4/40 cells.
Consider `CC[C@]1(O)C[C@@H]2CN(CCc3c([nH]c4ccccc34)[C@@](C(=O)OC)(c3cc4c(cc3OC)N(C)[C@H]3[C@@](O)(C(=O)OC)[C@H](OC(C)=O)[C@]5(CC)C=CCN6CC[C@]43[C@@H]65)C2)C1` [Vinblastine, Vinblastine sulfate], for which the IC50 with MDA-MB-435 cells is less than 1 nM; in the experiment with EA40 cells, less than 1 nM; in the experiment with MDA/T0.3 cells (setting [1]), 14 ± 2.7 nM. Besides, the “resistance profile in words” value in the experiment with EA40 cells is listed as “equally sensitive”; in the experiment with KB-8511 cells, “resistant”; in the experiment with 297/C5/0 cells, “hypersensitive”; with 298/D4/40 cells, “hypersensitive”. Also, the “RF (resistance factor: IC50 resistant cell line / IC50 parental KB-31)” value in the experiment on KB-8511 cells stood at 162.4; with 297/C5/0 cells, 0.7; in the experiment on 298/D4/40 cells, 0.2; in the experiment on 315/sc5.9 cells, 0.6.
In the case of `CC[C@]1(O)C[C@H]2CN(CCc3c([nH]c4ccccc34)[C@@](C(=O)OC)(c3cc4c(cc3OC)N(C=O)[C@H]3[C@@](O)(C(=O)OC)[C@H](OC(C)=O)[C@]5(CC)C=CCN6CC[C@]43[C@@H]65)C2)C1` [Vincristine, vincristine], the IC50 came to 3 ± 2 nM in the experiment on MDA-MB-435 cells and 4 ± 1.7 nM with EA40 cells. Also, the “resistance profile in words” value is “equally sensitive” with EA40 cells and “slightly hypersensitive” with 315/sc5.9 cells.
